The structures appear in SMILES notation. Values joined by “and” are separate entries in the source; they are usually repeats but may differ in a detail not shown here. Identical values can stand only once.

Our source for the Ki values is BindingDB's records for PubMed 7965746 (U. 109, 1994).

In the assay the target is Hrh3 protein (Rattus norvegicus, UniProt Q5PPG3).
Chain of Hrh3 protein (Q5PPG3 whole entry): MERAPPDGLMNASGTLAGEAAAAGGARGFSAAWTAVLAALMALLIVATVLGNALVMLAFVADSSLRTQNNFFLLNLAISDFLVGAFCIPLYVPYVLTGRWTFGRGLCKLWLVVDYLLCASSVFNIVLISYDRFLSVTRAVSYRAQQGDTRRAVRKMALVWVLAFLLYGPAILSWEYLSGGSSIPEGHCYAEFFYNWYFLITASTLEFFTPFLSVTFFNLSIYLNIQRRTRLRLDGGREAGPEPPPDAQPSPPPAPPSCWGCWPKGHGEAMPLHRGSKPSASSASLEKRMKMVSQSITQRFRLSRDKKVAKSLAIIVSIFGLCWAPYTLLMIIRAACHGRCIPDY
Regarding `S=C(NC1CCCCC1)N1CCC(c2cnc[nH]2)CC1`, the Ki was 4 nM and 2 nM.
Consider `CCCCCCC(=O)N1CCC(c2cnc[nH]2)CC1` [Carboperamide], for which the Ki is 6.1 nM and 20 nM.
Take `C[C@H](N)Cc1c[nH]cn1` [CAS_75614-93-6]: the Ki was 77 nM and 470 nM and 50 nM.
On to `N=C(N)SCCc1cnc[nH]1` [2-(3H-imidazol-4-yl)ethylsulfanylmethanimidamide], for which the Ki was 0.15 nM and 1 nM and 0.1 nM.
In the case of `Cc1[nH]cnc1CSCCNC(=N)NCCCc1c[nH]cn1` [2-[3-(1H-imidazol-5-yl)propyl]-1-(2-{[(5-methyl-1H-imidazol-4-yl)methyl]sulfanyl}ethyl)guanidine], the inhibition constant (Ki) was 75 nM and 65 nM and 45 nM.
Consider `CNC(=S)NCCCCc1cnc[nH]1` [1-[4-(1H-imidazol-5-yl)butyl]-3-methylthiourea], for which the inhibition constant (Ki) was 68 nM and 70 nM and 180 nM.
`C[C@@H](N)Cc1c[nH]cn1`: the inhibitory constant (Ki) was 4 nM and 0.5 nM.
